In US20040024024A1, “Aromatic sulfone hydroxamates and their use as protease inhibitors” (priority 2001, published 2004):

Experiments:
Assay in all cases: In vitro MMP inhibition, IC50 determination (fluorogenic substrate I)
Format in all cases: biochemical
Human recombinant MMP-14 = biological target: T1, Human recombinant MMP-14 (Homo sapiens, UniProt P50281)
T1 construct: The catalytic domain enzyme was expressed in E. coli inclusion bodies, solubilized in urea; made in house
Summary of the method: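 IC50 came from reduced fluorescence (ex 328 nm, em 415 nm) as inhibitor concentration rose, with 4 μM substrate I cleaved at Gly-Leu. Room-temperature incubation in pH 7.5 Tris buffer with 10 mM CaCl2; the E. coli-expressed, refolded MMP-14 catalytic domain was activated with trypsin or APMA.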

Human recombinant MMP-1 = biological target: T2, Human recombinant MMP-1 (Homo sapiens, UniProt P03956)
T2 construct: made in house; host or cells: MMP-1-transfected HT-1080 cells (spent media)
T2 sequence (P03956 100-469): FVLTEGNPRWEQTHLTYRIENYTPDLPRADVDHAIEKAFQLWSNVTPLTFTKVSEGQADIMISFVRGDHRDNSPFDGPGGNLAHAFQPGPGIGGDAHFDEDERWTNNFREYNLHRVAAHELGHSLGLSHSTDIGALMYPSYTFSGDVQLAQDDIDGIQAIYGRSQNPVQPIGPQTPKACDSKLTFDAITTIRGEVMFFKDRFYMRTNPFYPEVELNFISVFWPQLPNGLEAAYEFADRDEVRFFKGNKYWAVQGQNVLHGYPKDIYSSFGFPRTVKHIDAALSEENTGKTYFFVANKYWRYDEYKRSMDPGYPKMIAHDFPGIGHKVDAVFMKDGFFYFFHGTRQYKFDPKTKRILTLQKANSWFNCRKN
Summary of the method: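 Inhibitor dilutions were made in 100 mM Tris-HCl/100 mM NaCl/10 mM CaCl2 buffer, pH 7.5, and incubated at room temperature with activated proenzyme (from transfected HT-1080 media; APMA or trypsin) and 4 μM quenched methoxycoumarin peptide substrate. Loss of 415 nm fluorescence (328 nm excitation) against concentration gave IC50.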

Human recombinant MMP-13 = biological target: T3, Human recombinant MMP-13 (Homo sapiens, UniProt P45452)
T3 construct: made in house; host or cells: baculovirus / insect cells
Summary of the method: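 Fluorescence at 415 nm (excitation 328 nm) reports Gly-Leu cleavage of 4 μM quenched methoxycoumarin peptide substrate I. Human recombinant MMP-13, activated by trypsin or APMA, was incubated at room temperature with varied inhibitor concentrations in pH 7.5 Tris/NaCl/CaCl2 buffer; IC50 derived from reduced fluorescence.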

Human recombinant MMP-9 = biological target: T4, Human recombinant MMP-9 (Homo sapiens, UniProt P14780)
T4 construct: made in house; host or cells: MMP-9-transfected HT1080 cells (spent media)
T4 sequence (P14780 107-707 limits assumed): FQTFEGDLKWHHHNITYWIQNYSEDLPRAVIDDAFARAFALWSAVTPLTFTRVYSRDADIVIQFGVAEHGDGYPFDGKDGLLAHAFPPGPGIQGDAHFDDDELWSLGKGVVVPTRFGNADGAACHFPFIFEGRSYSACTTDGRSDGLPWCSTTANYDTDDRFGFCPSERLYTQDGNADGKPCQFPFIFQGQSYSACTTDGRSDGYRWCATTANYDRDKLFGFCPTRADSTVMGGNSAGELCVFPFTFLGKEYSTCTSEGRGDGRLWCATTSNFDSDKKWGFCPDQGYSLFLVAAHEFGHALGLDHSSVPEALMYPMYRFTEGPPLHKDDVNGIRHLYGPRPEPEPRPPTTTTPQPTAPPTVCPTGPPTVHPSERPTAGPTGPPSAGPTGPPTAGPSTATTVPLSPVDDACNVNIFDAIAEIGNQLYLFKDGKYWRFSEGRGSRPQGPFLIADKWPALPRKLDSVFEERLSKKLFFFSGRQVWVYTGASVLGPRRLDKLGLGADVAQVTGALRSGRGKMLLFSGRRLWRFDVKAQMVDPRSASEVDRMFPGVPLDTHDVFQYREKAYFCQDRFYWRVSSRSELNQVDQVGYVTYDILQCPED
Summary of the method: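 Reduction in fluorescence (328 nm excitation, 415 nm emission) from cleavage of 4 μM quenched peptide substrate I, measured at room temperature against inhibitor concentration, gave IC50. Enzyme: trypsin- or APMA-activated MMP-9 purified from transfected HT1080 medium; buffer 100 mM Tris, 100 mM NaCl, 10 mM CaCl2, pH 7.5.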

Human recombinant MMP-2 = biological target: T5, Human recombinant MMP-2 (Homo sapiens, UniProt P08253)
T5 construct: made in house; host or cells: MMP-2-transfected p2AHT2 cells
T5 sequence (P08253 110-660): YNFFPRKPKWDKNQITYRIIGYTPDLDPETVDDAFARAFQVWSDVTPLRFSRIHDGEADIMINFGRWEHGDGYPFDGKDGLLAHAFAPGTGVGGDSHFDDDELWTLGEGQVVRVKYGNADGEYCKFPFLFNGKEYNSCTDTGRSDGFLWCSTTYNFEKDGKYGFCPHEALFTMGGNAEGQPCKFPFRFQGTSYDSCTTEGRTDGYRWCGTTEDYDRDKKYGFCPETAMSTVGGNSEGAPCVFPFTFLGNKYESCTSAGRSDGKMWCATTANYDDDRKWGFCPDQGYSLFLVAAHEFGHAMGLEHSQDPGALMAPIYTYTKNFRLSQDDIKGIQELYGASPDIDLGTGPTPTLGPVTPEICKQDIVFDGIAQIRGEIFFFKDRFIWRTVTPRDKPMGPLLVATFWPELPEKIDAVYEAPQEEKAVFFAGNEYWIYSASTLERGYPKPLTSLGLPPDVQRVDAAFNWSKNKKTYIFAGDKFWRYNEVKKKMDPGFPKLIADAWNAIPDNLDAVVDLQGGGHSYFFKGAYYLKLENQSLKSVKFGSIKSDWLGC
Summary of the method: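 IC50 was derived from the concentration-dependent fall in fluorescence (ex 328, em 415 nm) on Gly-Leu cleavage of 4 μM MCA/Dpa-quenched substrate I. Assays ran at room temperature in pH 7.5 Tris/NaCl/CaCl2/Brij buffer with MMP-2 activated by trypsin or APMA; inhibitors were diluted from 1% DMSO stocks.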

[1] = value outside parentheses (Ki in parenthesis)

| IC50 (Human recombinant MMP-14; [1]) | IC50 (Human recombinant MMP-1; [1]) | IC50 (Human recombinant MMP-13; [1]) | IC50 (Human recombinant MMP-9; [1]) | IC50 (Human recombinant MMP-2; [1]) | other results | SMILES |
| --- | --- | --- | --- | --- | --- | --- |
| – | – | – | – | – | IC50 (Human recombinant MMP-14; value outside parentheses): 3460 nM; IC50 (Human recombinant MMP-1; value outside parentheses): > 10000 nM; IC50 (Human recombinant MMP-13; value outside parentheses): 6030 nM; IC50 (Human recombinant MMP-9; value outside parentheses): 380 nM; IC50 (Human recombinant MMP-2; value outside parentheses): 316 nM | O=C(NO)C1(S(=O)(=O)c2ccc(OCCCn3nnc(-c4ccc(C(F)(F)F)cc4)n3)cc2)CCN(CC(F)(F)F)CC1 [Example 657] |
| – | – | – | – | – | IC50 (Human recombinant MMP-14; value outside parenthesis): > 10000 nM; IC50 (Human recombinant MMP-1; value outside parenthesis): > 10000 nM; IC50 (Human recombinant MMP-13; value outside parenthesis): 4 nM; IC50 (Human recombinant MMP-9; value outside parenthesis): 1130 nM; IC50 (Human recombinant MMP-2; value outside parenthesis): 74.9 nM | Cc1cc(C)nc(SCCCOc2ccc(S(=O)(=O)C3(C(=O)NO)CCOCC3)cc2)n1 [Example 286] |
| – | – | – | – | – | IC50 (Human recombinant MMP-14; value outside parentheses): 4300 nM; IC50 (Human recombinant MMP-1; value outside parentheses): > 10000 nM; IC50 (Human recombinant MMP-13; value outside parentheses): 0.62 nM; IC50 (Human recombinant MMP-9; value outside parentheses): 36.4 nM; IC50 (Human recombinant MMP-2; value outside parentheses): 54.2 nM | O=C(NO)C1(S(=O)(=O)c2ccc(OCCCOCc3cccnc3)cc2)CCOCC1 [Example 520] |
| > 10000 nM | > 10000 nM | 4.4 nM | > 10000 nM | 61.8 nM | – | O=C(NO)C1(S(=O)(=O)c2ccc(OCCCCS(=O)(=O)C3CCCCC3)cc2)CCOCC1 [Example 348] |
| 8320 nM | > 10000 nM | 0.3 nM | 263 nM | 7.4 nM | – | O=C(CCCCOc1ccc(S(=O)(=O)C2(C(=O)NO)CCOCC2)cc1)c1ccccc1 [Example 326] |
| > 10000 nM | > 10000 nM | 4 nM | > 10000 nM | 67 nM | – | COc1ccc(C(=O)N2CCC(COc3ccc(S(=O)(=O)C4(C(=O)NO)CCOCC4)cc3)CC2)cc1 [Example 420] |
| > 10000 nM | > 10000 nM | 0.4 nM | > 10000 nM | 58.2 nM | – | O=C(CCCCOc1ccc(S(=O)(=O)C2(C(=O)NO)CCOCC2)cc1)c1ccc2ccccc2c1 [Example 489] |
| – | – | – | – | – | IC50 (Human recombinant MMP-14; value outside parentheses): 1970 nM; IC50 (Human recombinant MMP-1; value outside parentheses): 1580 nM; IC50 (Human recombinant MMP-13; value outside parentheses): 2 nM; IC50 (Human recombinant MMP-9; value outside parentheses): 54.8 nM; IC50 (Human recombinant MMP-2; value outside parentheses): 5.3 nM | COc1ccc(CC(=O)NCCOc2ccc(S(=O)(=O)C3(C(=O)NO)CCOCC3)cc2)cc1 [Example 616] |
| > 10000 nM | > 10000 nM | 1.9 nM | > 10000 nM | 2350 nM | – | O=C(NCCCOc1ccc(S(=O)(=O)C2(C(=O)NO)CCOCC2)cc1)C12CC3CC(CC(C3)C1)C2 [Example 405] |
| 320 nM | 3660 nM | < 0.1 nM | 9.1 nM | 0.2 nM | – | COc1ccc(CC(=O)CCCOc2ccc(S(=O)(=O)C3(C(=O)NO)CCOCC3)cc2)cc1 [Example 301] |
| – | – | – | – | – | IC50 (Human recombinant MMP-14; value outside parenthesis): 3540 nM; IC50 (Human recombinant MMP-1; value outside parenthesis): > 10000 nM; IC50 (Human recombinant MMP-13; value outside parenthesis): 0.3 nM; IC50 (Human recombinant MMP-9; value outside parenthesis): 48.2 nM; IC50 (Human recombinant MMP-2; value outside parenthesis): 4.7 nM | O=C(NO)C1(S(=O)(=O)c2ccc(OCCSc3nc4ccc(Cl)cc4o3)cc2)CCN(C2CC2)CC1 [Example 188] |
| > 10000 nM | > 10000 nM | 3.7 nM | 1600 nM | 176 nM | – | C[C@@H]1[C@H](c2ccccc2)OC(=O)N1CCCOc1ccc(S(=O)(=O)C2(C(=O)NO)CCOCC2)cc1 [Example 308] |
| > 10000 nM | > 10000 nM | 0.8 nM | 9000 nM | 150 nM | – | COC(=O)c1ccc(C(=O)NCCCOc2ccc(S(=O)(=O)C3(C(=O)NO)CCOCC3)cc2)cc1 [Example 368] |
| – | – | – | – | – | IC50 (Human recombinant MMP-14; value outside parenthesis): > 10000 nM; IC50 (Human recombinant MMP-1; value outside parenthesis): > 10000 nM; IC50 (Human recombinant MMP-13; value outside parenthesis): < 0.1 nM; IC50 (Human recombinant MMP-9; value outside parenthesis): 37.9 nM; IC50 (Human recombinant MMP-2; value outside parenthesis): 0.1 nM | COc1ccc(CCCCc2ccc(S(=O)(=O)C3(C(=O)NO)CCOCC3)cc2)cc1 [Example 256] |
| – | – | – | – | – | IC50 (Human recombinant MMP-14; value outside parentheses): 2390 nM; IC50 (Human recombinant MMP-1; value outside parentheses): 2880 nM; IC50 (Human recombinant MMP-13; value outside parentheses): 2.45 nM; IC50 (Human recombinant MMP-9; value outside parentheses): 2.46 nM; IC50 (Human recombinant MMP-2; value outside parentheses): 1.1 nM | NCc1ccc(OCCOc2ccc(S(=O)(=O)C3(C(=O)NO)CCOCC3)cc2)cc1 [Example 650] |
